Reference: PMC9916441, “Resveratrol Derivative Exhibits Marked Antiproliferative Actions, Affecting Stemness in Pancreatic Cancer Cells” (International Journal of Molecular Sciences, 2023)
Each block holds one compound with its values, some of them ahead of it.

Legend:
AsPC-1 [1] = experiment: MTT cell viability assay; assay type: cell-based, human; details: for IC50: Homo sapiens, ASPC1, AsPC-1, MTT, 72 h
Description: (§1) The cell viability was assessed using MTT assay, as previously described. Briefly, the cells were seeded in 96-well plates (4 × 10^3 cells/well) and were treated for 72 h with different concentrations of RSV, DF5, and DF12. The IC50 values were extrapolated from dose–response curves and calculated using the CompuSyn software (https://www.combosyn.com/). The selectivity index (SI) values were calculated as ratios between the IC50 values of compounds in normal HFF-1 fibroblast cells and the IC50 values of the same compounds in the PC cell lines.

BxPC-3 [2] = experiment: MTT cell viability assay; assay type: cell-based, human; details: for IC50: Homo sapiens, BxPC-3, MTT, 72 h
Description: as §1

Capan-2 [3] = experiment: MTT cell viability assay; assay type: cell-based, human; details: for IC50 / viability at 50 µM: Homo sapiens, Capan-2, MTT; for IC50: 72 h; for viability at 50 µM: plateau reached already at 50 µM, read-out: residual viability
Description: as §1

AsPC-1 [4] = experiment: Colony formation assay; assay type: cell-based, human; details: AsPC-1, 20 µM, 72 h treatment
Description: (§2) A colony formation assay was performed as previously described. Briefly, the PC cells were seeded in 6-well plates, incubated for 24 h, and then treated for 72 h with 20 μM DF5, DF12, and RSV or with vehicle (DMSO) as indicated. After 4 days, following methanol fixation and crystal violet staining, the colonies of at least 30 cells were counted.

BxPC-3 [5] = experiment: Colony formation assay; assay type: cell-based, human; details: BxPC-3, 20 µM, 72 h treatment
Description: as §2

Capan-2 [6] = experiment: Colony formation assay; assay type: cell-based, human; details: Capan-2, 20 µM, 72 h treatment
Description: as §2

[7] = test system: normal HFF-1 fibroblast cells; experiment: MTT cell viability assay on normal fibroblasts; assay type: cell-based, human; details: 72 h
Description: as §1

AsPC-1 [8] = experiment: Flow cytometry immunophenotyping of CD133+EpCAM+ cancer stem-like subpopulation; assay type: cell-based, human; details: AsPC-1, 20 μM, 72 h
Description: (§3) The expression of CD133 and EpCAM surface antigens was evaluated using flow cytometry. Briefly, the PC cells were seeded in 6-well plates and treated for 72 h with 20 μM DF5, RSV, or with vehicle (DMSO). After treatment, the cells were collected in PBS and stained at room temperature in the dark for 30 min with PE-CD133, FITC-EpCAM antibodies, and Reactive Dye. After labeling, the samples were washed in PBS by centrifugation at 1500 rpm for 10 min, to remove excess antibodies. Flow cytometer performance, stability, and data reproducibility were daily checked by using the CS&T quality control Module (BD Biosciences). The gating strategy and the evaluation of non-specific fluorescence was determined using fluorescence minus one (FMO) controls. The data were acquired with FACSVerse analyzer equipped with a volumetric count module (BD Biosciences, San Jose, CA, USA) and are expressed as the percentage of positive cells.

BxPC-3 [9] = experiment: as above; assay type: cell-based, human; details: BxPC-3, 20 μM, 72 h
Description: as §3

Capan-2 [10] = experiment: as above; assay type: cell-based, human; details: Capan-2, 20 μM, 72 h
Description: as §3

[11] = test system: AsPC-1, BxPC-3 and Capan-2 PC cell lines; experiment: Cell growth, trypan blue exclusion test; assay type: cell-based, human; details: 50 μM, counted at 24, 48 and 72 h, three PC cell lines, vs control
Description: The cell counting was performed using the trypan blue exclusion test. Briefly, PC cells were seeded in 24-well plates (5 × 10^4 cells/well) and then were treated with 50 μM of DF5, RSV, or with vehicle and counted at 24, 48, and 72 h.

AsPC-1 [12] = experiment: Apoptosis assay, annexin-V staining by flow cytometry; assay type: cell-based, human; details: 24 h
Description: (§4) The apoptosis assay was performed essentially as previously described. the analyses were performed using a CytoFLEX flow cytometer, using the FL1 detector in linear mode and the CytoExpert software (Beckmann Coulter, Milano, Italy).

BxPC-3 [13] = experiment: as above; assay type: cell-based, human; details: 24 h
Description: as §4

Capan-2 [14] = experiment: as above; assay type: cell-based, human; details: 24 h
Description: as §4

[15] = test system: poly-(ADP-ribose) polymerase (PARP); experiment: Western blot of PARP cleavage in PC cell lines; assay type: cell-based, human; details: vs untreated cells
Description: (§5) The PC cell lines treated with 50 μM DF5, RSV, or with vehicle (DMSO) were lysed in a cell lysis buffer containing PMSF, protease inhibitors cocktails, and phosphatase inhibitors. The protein lysate quantification and immunoblot analyses were performed as previously described.

p-SER^139H2AX = experiment: Western blot of phospho-H2AX (γH2AX) in PC cell lines; assay type: cell-based, human
Description: as §5

[16] = test system: AsPC-1, BxPC-3 and Capan-2 PC cell lines; experiment: Cell cycle analysis by flow cytometry; assay type: cell-based, human; details: 50 μM, 24 h
Description: To perform the cell cycle analysis, the PC cells (3 × 10^5) were collected, fixed in 70% cold ethanol, and kept at 4 °C overnight. The collected cells were incubated at 4 °C overnight in 5 μg/mL PI (final concentration) and 100 μg/mL RNAse (final concentration). The cell cycle profiles were analyzed as previously described.

Cyclin D3 = experiment: Western blot of cyclin D3 in PC cell lines; assay type: cell-based, human; details: 50 μM
Description: as §5

cyclin B1/CDK1 complex = experiment: Western blot of cyclin B1, Cdc2/Cdk1 and p-Cdc2 (Thr161) in PC cell lines; assay type: cell-based, human; details: 50 μM, BxPC-3
Description: as §5

[17] = design: method as in PMID 25224342; details: based on solubility of ref 43; cited from earlier work

- IC50 (AsPC-1 [1]): 11.1 µM
- IC50 (BxPC-3 [2]): 18.3 µM
SMILES: Oc1ccc(/C=C/c2ccc3ccccc3c2)cc1 [DF12]
- IC50 (Capan-2 [3]): 58.1 µM
- viability at 50 µM (Capan-2 [3]): > 50%
- effect on clonogenicity (colony formation) (AsPC-1 [4]): relevant effects on clonogenic capacity
- effect on clonogenicity (colony formation) (BxPC-3 [5]): relevant effects on clonogenic capacity
- effect on clonogenicity (colony formation) (Capan-2 [6]): marginal effects

- IC50 (AsPC-1 [1]): 29 µM
- IC50 (BxPC-3 [2]): 48.7 µM
SMILES: Oc1ccc(/C=C/c2cc(O)cc(O)c2)cc1 [RSV, 3,5,4′-trihydroxy-trans-stilbene, reference compound]
- Selectivity Index (SI) AsPC-1 (AsPC-1 [1]; SI = IC50 on normal HFF-1 fibroblast cells/IC50 on AsPC-1): > 3.45
- Selectivity Index (SI) BxPC-3 (BxPC-3 [2]; SI = IC50 on normal HFF-1 fibroblast cells/IC50 on BxPC-3): > 2.05
- IC50 (Capan-2 [3]): > 100 µM
- viability at 50 µM (Capan-2 [3]): > 50%
- Selectivity Index (SI) Capan-2 (Capan-2 [3]; SI = IC50 on normal HFF-1 fibroblast cells/IC50 on Capan-2): > 1.00
- toxicity against normal HFF-1 fibroblast cells ([7]; up to 100 μM): negligible toxicity
- IC50 ([7]; Homo sapiens, normal HFF-1 fibroblasts, 100 μM highest concentration used): > 100 µM
- effect on clonogenicity (colony formation) (AsPC-1 [4]): significantly, but modestly, affected clonogenic activity
- effect on clonogenicity (colony formation) (BxPC-3 [5]): significantly, but modestly, affected clonogenic activity
- effect on clonogenicity (colony formation) (Capan-2 [6]): significantly, but modestly, affected clonogenic activity
- effect on percentage of CD133+EpCAM+ cancer stem-like subpopulation (AsPC-1 [8]): did not affect this subpopulation
- effect on percentage of CD133+EpCAM+ cancer stem-like subpopulation (BxPC-3 [9]): more marked effect
- effect on percentage of CD133+EpCAM+ cancer stem-like subpopulation (Capan-2 [10]): did not affect this subpopulation
- effect on cell growth (cell number) [11]: significantly, drastically, and comparably affected cell growth
- apoptosis induction (Annexin V+ cells) (AsPC-1 [12]; AsPC-1, 20 μM): statistically significant apoptosis
- apoptosis induction (Annexin V+ cells) (AsPC-1 [12]; AsPC-1, 50 μM): significant but less marked increment of apoptotic cells
- apoptosis induction (Annexin V+ cells) (BxPC-3 [13]; BxPC-3, 20 μM): neither compound affected apoptosis
- apoptosis induction (Annexin V+ cells) (BxPC-3 [13]; BxPC-3, 50 μM): significant but less marked increment of apoptotic cells
- apoptosis induction (Annexin V+ cells) (Capan-2 [14]; Capan-2, 20 μM): statistically significant apoptosis
- apoptosis induction (Annexin V+ cells) (Capan-2 [14]; Capan-2, 50 μM): significant but less marked increment of apoptotic cells
- effect on cleaved:uncleaved PARP ratio ([15]; AsPC-1, 50 μM): affected the PARP cleavage ratio
- effect on cleaved:uncleaved PARP ratio ([15]; BxPC-3, 50 μM): small
- effect on cleaved:uncleaved PARP ratio ([15]; Capan-2, 50 μM): negligible
- activation (phosphorylation) of H2AX (p-SER^139H2AX; AsPC-1, 50 μM): increased H2AX phosphorylation
- activation (phosphorylation) of H2AX (p-SER^139H2AX; BxPC-3, 50 μM): to a lesser extent
- activation (phosphorylation) of H2AX (p-SER^139H2AX; Capan-2, 50 μM): no activation of H2AX
- effect on cells in G0/G1 phase ([16]; across the three PC cell lines, vs untreated cells): statistically significant accumulation of cells at the G0/G1 phase
- effect on cells in G2/M phase ([16]; three PC cell lines, in Capan-2 it did not reach statistical significance): drastic depletion of cells in the G2/M phase
- effect on cyclin D3 expression (Cyclin D3): present but less marked
- effect on expression of the cyclin B1/CDK1 complex (cyclin B1/CDK1 complex): much less evident
- Classification (water solubility) [17]: PI (PI (Practically Insoluble))
